Reference: US5137892A, “Quinoline, naphthyridine and pyridobenzoxazine derivatives” (Abbott Laboratories, priority 1990, dated 1992)
≈ marks a conversion by molar mass, not a printed value.

Legend:
Type in all cases: cell-based
[1] = tested on: Pseudomonas aeruginosa K599/61; conditions: P. aeruginosa K599/61; BHI agar dilution, 20-24 hours; unit assumed
Description: (§1) The activity of the compounds of the present invention was tested against a wide variety of bacteria using standard assay procedures. Minimum inhibitory concentrations (MICs) were determined by the agar dilution method, described below, using Brain Heart Infusion agar.
(§2) Twelve petri dishes were prepared, each containing successive aqueous 2-fold dilutions of the test compounds mixed with 10 mL of sterilized Brain Heart Infusion (BHI) agar. Each plate was inoculated with 100-fold (or 10-fold, for slow-growing strains such as Micrococcus and Streptococcus) dilutions of up to 32 different microorganisms using a Steers replicator block calibrated to deliver approximately 10^4 colony forming units (CFUs). The inoculated plates were incubated at about 35°-37° C. for approximately 20-24 hours. In addition, a control plate, using BHI agar containing no test compound, was prepared and incubated at the beginning and at the end of each test. Ciprofloxacin was used as the reference antibiotic.
(§3) The MIC was defined as the lowest concentration of test compound yielding no growth (a slight haze or sparsely isolated colonies at the inoculum spot as compared to the growth control contaning no test compound.

[2] = tested on: Escherichia coli DC-2; test: In Vitro Antibacterial Activity, agar dilution MIC; conditions: E. coli DC-2; BHI agar dilution, 20-24 hours; unit assumed
Description: as §1, §2, §3

[3] = tested on: Staphylococcus aureus CMX 553; test: In Vitro Antibacterial Activity, agar dilution MIC; conditions: S. aureus CMX 553; BHI agar dilution, 20-24 hours; unit assumed
Description: as §1, §2, §3

[4] = tested on: Streptococcus agalactaciae CMX 508; test: In Vitro Antibacterial Activity, agar dilution MIC; conditions: S. agalactaciae CMX 508; BHI agar dilution, 20-24 hours; unit assumed
Description: as §1, §2, §3

[5] = tested on: Escherichia coli JUHL; test: In Vitro Antibacterial Activity, agar dilution MIC; conditions: E. coli JUHL; BHI agar dilution, 20-24 hours; unit assumed
Description: as §1, §2, §3

[6] = tested on: Staphylococcus aureus NCTC 10649; test: In Vitro Antibacterial Activity, agar dilution MIC; conditions: S. aureus NCTC 10649; BHI agar dilution, 20-24 hours; unit assumed
Description: as §1, §2, §3

[7] = tested on: Streptococcus pyogenes 2548 INDUC; test: In Vitro Antibacterial Activity, agar dilution MIC; conditions: S. pyogenes 2548 INDUC; BHI agar dilution, 20-24 hours; unit assumed
Description: as §1, §2, §3

[8] = tested on: Pseudomonas cepacia 2961; test: In Vitro Antibacterial Activity, agar dilution MIC; conditions: P. cepacia 2961; BHI agar dilution, 20-24 hours; unit assumed
Description: as §1, §2, §3

[9] = tested on: Escherichia coli KNK 437; test: In Vitro Antibacterial Activity, agar dilution MIC; conditions: E. coli KNK 437; BHI agar dilution, 20-24 hours; unit assumed
Description: as §1, §2, §3

[10] = tested on: Micrococcus luteus ATCC 4698; test: In Vitro Antibacterial Activity, agar dilution MIC; conditions: M. luteus ATCC 4698; BHI agar dilution, 20-24 hours; unit assumed
Description: as §1, §2, §3

[11] = tested on: Staphylococcus aureus ATCC 6538P; test: In Vitro Antibacterial Activity, agar dilution MIC; conditions: S. aureus ATCC 6538P; BHI agar dilution, 20-24 hours; unit assumed
Description: as §1, §2, §3

[12] = tested on: Acinetobacter SP CMX 699; test: In Vitro Antibacterial Activity, agar dilution MIC; conditions: BHI agar dilution, 20-24 hours, unit assumed
Description: as §1, §2, §3

[13] = tested on: Pseudomonas aeruginosa 5263; test: In Vitro Antibacterial Activity, agar dilution MIC; conditions: P. aeruginosa 5263; BHI agar dilution, 20-24 hours; unit assumed
Description: as §1, §2, §3

[14] = tested on: Pseudomonas aeruginosa K799/WT; test: In Vitro Antibacterial Activity, agar dilution MIC; conditions: P. aeruginosa K799/WT; BHI agar dilution, 20-24 hours; unit assumed
Description: as §1, §2, §3

[15] = tested on: Pseudomonas aeruginosa 2862; test: In Vitro Antibacterial Activity, agar dilution MIC; conditions: P. aeruginosa 2862; BHI agar dilution, 20-24 hours; unit assumed
Description: as §1, §2, §3

[16] = tested on: Micrococcus luteus ATCC 9341; test: In Vitro Antibacterial Activity, agar dilution MIC; conditions: M. luteus ATCC 9341; BHI agar dilution, 20-24 hours; unit assumed
Description: as §1, §2, §3

[17] = tested on: Staphylococcus aureus A5177; test: In Vitro Antibacterial Activity, agar dilution MIC; conditions: S. aureus A5177; BHI agar dilution, 20-24 hours; unit assumed
Description: as §1, §2, §3

[18] = tested on: Escherichia coli H560; test: In Vitro Antibacterial Activity, agar dilution MIC; conditions: E. coli H560; BHI agar dilution, 20-24 hours; unit assumed
Description: as §1, §2, §3

[19] = tested on: Streptococcus pyogenes EES61; test: In Vitro Antibacterial Activity, agar dilution MIC; conditions: S. pyogenes EES61; BHI agar dilution, 20-24 hours; unit assumed
Description: as §1, §2, §3

[20] = tested on: Pseudomonas aeruginosa BMH10; test: In Vitro Antibacterial Activity, agar dilution MIC; conditions: P. aeruginosa BMH10; BHI agar dilution, 20-24 hours; unit assumed
Description: as §1, §2, §3

[21] = tested on: Streptococcus bovis A5169; test: In Vitro Antibacterial Activity, agar dilution MIC; conditions: S. bovis A5169; BHI agar dilution, 20-24 hours; unit assumed
Description: as §1, §2, §3

[22] = tested on: Enterococcus faecium ATCC 8043; test: In Vitro Antibacterial Activity, agar dilution MIC; conditions: E. faecium ATCC 8043; BHI agar dilution, 20-24 hours; unit assumed
Description: as §1, §2, §3

[23] = tested on: Escherichia coli SS; test: In Vitro Antibacterial Activity, agar dilution MIC; conditions: E. coli SS; BHI agar dilution, 20-24 hours; unit assumed
Description: as §1, §2, §3

[24] = tested on: Pseudomonas aeruginosa A5007; test: In Vitro Antibacterial Activity, agar dilution MIC; conditions: P. aeruginosa A5007; BHI agar dilution, 20-24 hours; unit assumed
Description: as §1, §2, §3

[25] = tested on: Staphylococcus aureus A-5278; test: In Vitro Antibacterial Activity, agar dilution MIC; conditions: S. aureus A-5278; BHI agar dilution, 20-24 hours; unit assumed
Description: as §1, §2, §3

[26] = tested on: Staphylococcus aureus 1775; test: In Vitro Antibacterial Activity, agar dilution MIC; conditions: S. aureus 1775; BHI agar dilution, 20-24 hours; unit assumed
Description: as §1, §2, §3

[27] = tested on: Enterobacter aerogenes ATCC 13048; test: In Vitro Antibacterial Activity, agar dilution MIC; conditions: E. aerogenes ATCC 13048; BHI agar dilution, 20-24 hours; unit assumed
Description: as §1, §2, §3

[28] = tested on: Providencia stuartii CMX 640; test: In Vitro Antibacterial Activity, agar dilution MIC; conditions: P. stuartii CMX 640; BHI agar dilution, 20-24 hours; unit assumed
Description: as §1, §2, §3

[29] = tested on: Staphylococcus aureus 642A; test: In Vitro Antibacterial Activity, agar dilution MIC; conditions: S. aureus 642A; BHI agar dilution, 20-24 hours; unit assumed
Description: as §1, §2, §3

[30] = tested on: Streptococcus pyogenes 930 CONST; test: In Vitro Antibacterial Activity, agar dilution MIC; conditions: S. pyogenes 930 CONST; BHI agar dilution, 20-24 hours; unit assumed
Description: as §1, §2, §3

[31] = tested on: Klebsiella pneumoniae ATCC 8045; test: In Vitro Antibacterial Activity, agar dilution MIC; conditions: K. pneumoniae ATCC 8045; BHI agar dilution, 20-24 hours; unit assumed
Description: as §1, §2, §3

[32] = tested on: Staphylococcus epidermidis 3519; test: In Vitro Antibacterial Activity, agar dilution MIC; conditions: S. epidermidis 3519; BHI agar dilution, 20-24 hours; unit assumed
Description: as §1, §2, §3

[33] = tested on: Staphylococcus aureus 45; test: In Vitro Antibacterial Activity, agar dilution MIC; conditions: S. aureus 45; BHI agar dilution, 20-24 hours; unit assumed
Description: as §1, §2, §3

Structure (SMILES) | MIC values [1] [µg/mL] | MIC values [2] [µg/mL] | MIC values [3] [µg/mL] | MIC values [4] [µg/mL] | MIC values [5] [µg/mL] | MIC values [6] [µg/mL] | MIC values [7] [µg/mL] | MIC values [8] [µg/mL] | MIC values [9] [µg/mL] | MIC values [10] [µg/mL] | MIC values [11] [µg/mL] | MIC values [12] [µg/mL] | MIC values [14] [µg/mL] | MIC values [16] [µg/mL] | MIC values [17] [µg/mL] | MIC values [18] [µg/mL] | MIC values [19] [µg/mL] | MIC values [20] [µg/mL] | MIC values [21] [µg/mL] | MIC values [22] [µg/mL] | further results
O=C(O)c1cn(C2CC2)c2cc(N3CCNCC3)c(F)cc2c1=O [Cipro, Ciprofloxacin, reference compound] | 0.02 (≈ 0.0604 µM) | 0.2 (≈ 0.604 µM) | 0.78 (≈ 2.35 µM) | 0.39 (≈ 1.18 µM) | 0.02 (≈ 0.0604 µM) | 0.39 (≈ 1.18 µM) | 0.39 (≈ 1.18 µM) | 3.1 (≈ 9.36 µM) | 0.2 (≈ 0.604 µM) | 0.78 (≈ 2.35 µM) | 0.2 (≈ 0.604 µM) | 0.39 (≈ 1.18 µM) | 0.1 (≈ 0.302 µM) | 1.56 (≈ 4.71 µM) | 0.39 (≈ 1.18 µM) | 0.01 (≈ 0.0302 µM) | 0.39 (≈ 1.18 µM) | 0.05 (≈ 0.151 µM) | 1.56 (≈ 4.71 µM) | 0.39 (≈ 1.18 µM) | MIC values [13]: 12.5 µg/mL (≈ 37.7 µM); MIC values [15]: 25 µg/mL (≈ 75.4 µM); MIC values [23]: 0.005 µg/mL (≈ 0.0151 µM); MIC values [24]: 0.1 µg/mL (≈ 0.302 µM); MIC values [25]: 0.39 µg/mL (≈ 1.18 µM); MIC values [26]: > 100 µg/mL; MIC values [27]: 0.05 µg/mL (≈ 0.151 µM); MIC values [28]: 0.78 µg/mL (≈ 2.35 µM); MIC values [29]: 0.39 µg/mL (≈ 1.18 µM); MIC values [30]: 0.78 µg/mL (≈ 2.35 µM); MIC values [31]: 0.02 µg/mL (≈ 0.0604 µM); MIC values [32]: 0.2 µg/mL (≈ 0.604 µM); MIC values [33]: 0.78 µg/mL (≈ 2.35 µM)
NC1CN(c2c(F)cc3c(=O)c(C(=O)O)cn(C4CC4)c3c2F)CC12OCCO2 (stereo not drawn) [Example 274, 1-Cyclopropyl-6,8-difluoro-7-(9-amino-1,4-dioxa-7-azaspiro[4.4]non-7-yl)-1,4-dihydro-4-oxo-3-quinolinecarboxylic acid] | 0.1 (≈ 0.245 µM) | 0.78 (≈ 1.91 µM) | 0.1 (≈ 0.245 µM) | 0.2 (≈ 0.491 µM) | 0.05 (≈ 0.123 µM) | 0.05 (≈ 0.123 µM) | 0.1 (≈ 0.245 µM) | 6.2 (≈ 15.2 µM) | 0.78 (≈ 1.91 µM) | 0.39 (≈ 0.957 µM) | 0.05 (≈ 0.123 µM) | 0.2 (≈ 0.491 µM) | 1.56 (≈ 3.83 µM) | 0.39 (≈ 0.957 µM) | 0.1 (≈ 0.245 µM) | 0.2 (≈ 0.491 µM) | 0.2 (≈ 0.491 µM) | 1.56 (≈ 3.83 µM) | 0.39 (≈ 0.957 µM) | 0.39 (≈ 0.957 µM) | MIC values [23]: 0.002 µg/mL (≈ 0.00491 µM); MIC values [24]: 1.56 µg/mL (≈ 3.83 µM); MIC values [25]: 0.05 µg/mL (≈ 0.123 µM); MIC values [26]: 6.2 µg/mL (≈ 15.2 µM); MIC values [27]: 0.2 µg/mL (≈ 0.491 µM); MIC values [28]: 0.78 µg/mL (≈ 1.91 µM); MIC values [29]: 0.1 µg/mL (≈ 0.245 µM); MIC values [30]: 0.2 µg/mL (≈ 0.491 µM); MIC values [31]: 0.05 µg/mL (≈ 0.123 µM); MIC values [32]: 0.1 µg/mL (≈ 0.245 µM)
